Source: patent publication US10294202B2, “Pyrrolidinones as herbicides” (FMC Corporation, priority 2013, dated 2019)

Columns and labels:
[1] = tested on: rice, transplanted; test: Test F flood (paddy) test; format: in vivo, Oryza sativa cv. Japonica—M202; settings: 21 d, scale 0-100
From the text: (§1) Three plastic pots (ca. 16-cm diameter) per rate were partially filled with sterilized Tama silt loam soil comprising a 35:50:15 ratio of sand, silt and clay and 2.6% organic matter. Separate plantings for each of the three pots were as follows. Seeds from the U.S. of monochoria (Monochoria vaginalis), sedge, umbrella (small-flower umbrella sedge, Cyperus difformis), bulrush, […] bulrush, Scirpus juncoides), and […] (purple […] coccinea), were planted into one 16-cm pot for each rate. Seeds from the U.S. of flatsedge, rice (rice flatsedge, Cyperus iria), sprangletop, Brdd. (bearded sprangletop, Leptochloa fascicularis), one stand of 9 or 10 water seeded rice seedlings (Rice, W.S. Jap, Oryza sativa cv. 'Japonica-[…]' or Rice, W.S. Ind, 'Indica'), and two stands of 3 or 4 seedlings of rice, transplanted (transplanted rice, Oryza sativa cv. 'Japonica-[…]') were planted into one 16-cm pot for each rate. Seeds from the U.S. of barnyardgrass (Echinochloa crus-galli), […] (common […], Alisma plantago-aquatica), and watergrass, late (late watergrass, Echinochloa oryzicola) were planted into one 16-cm pot for each rate. Plantings were sequential so that crop and weed species were at the 2.0 to 2.5-leaf stage at time of treatment. Potted plants were grown in a greenhouse with day/night temperature settings of 30/27° C., and supplemental balanced lighting was provided to maintain a 16-h photoperiod. Test pots were maintained in the greenhouse until test completion. At time of treatment, test pots were flooded to 3 cm above the soil surface, treated by application of test compounds directly to the paddy water, and then maintained at that water depth for the duration of the test. Effects of treatments on rice and weeds were visually evaluated by comparison to untreated controls after 21 d. Plant response ratings, summarized in Table F, are based on a scale of 0 to 100 where 0 is no effect and 100 is complete control. A dash (-) response means no test result.

[2] = tested on: watergrass, late; test: Test F flood (paddy) test; format: in vivo, Echinochloa oryzicola; settings: 21 d, scale 0-100
From the text: as §1

[3] = tested on: sprangletop, Brdd.; test: Test F flood (paddy) test; format: in vivo, Leptochloa fascicularis; settings: 21 d, scale 0-100
From the text: as §1

[4] = tested on: barnyardgrass; test: Test F flood (paddy) test; format: in vivo, Echinochloa crus-galli; settings: 21 d, scale 0-100
From the text: as §1

[5] = tested on: corn; test: Test E preemergence herbicide test; format: in vivo, Zea mays; design: key: 0 = no effect, 100 = complete control
From the text: (§2) Seeds of plant species selected from corn (Zea mays), soybean (Glycine max), velvetleaf (Abutilon theophrasti), lambsquarters (Chenopodium album), wild poinsettia (Euphorbia heterophylla), pigweed, palmer (palmer pigweed, Amaranthus palmeri), waterhemp (common waterhemp, Amaranthus rudis), surinam grass (Brachiaria decumbens), crabgrass, large (large crabgrass, Digitaria sanguinalis), crabgrass, Brazil (Brazilian crabgrass, Digitaria horizontalis), panicum, fall (fall panicum, Panicum dichotomiflorum), foxtail, giant (giant foxtail, Setaria faberii), foxtail, green (green foxtail, Setaria viridis), goosegrass (Eleusine indica), johnsongrass (Sorghum halepense), ragweed (common ragweed, Ambrosia elatior), barnyardgrass (Echinochloa crus-galli), sandbur (southern sandbur, Cenchrus echinatus), arrowleaf […] rhombifolia), ryegrass, Italian (Italian ryegrass, Lolium multiflorum), dayflower, VA (Virginia dayflower, Commelina virginica), field bindweed (Convolvulus arvensis), morningglory (Ipomoea coccinea), nightshade (eastern black nightshade, Solanum ptycanthum), kochia (Kochia scoparia), nutsedge, yellow (yellow nutsedge, Cyperus esculentus), cocklebur (common cocklebur, Xanthium strumarium), smartweed (ladysthumb smartweed, Polygonum Persicaria) and beggarticks (hairy beggarticks, Bidens pilosa), were planted into a silt loam soil and treated preemergence with test chemicals formulated in a non-phytotoxic solvent mixture which included a surfactant. Treated plants and controls were maintained in a greenhouse for 21 days, after which time all species were compared to controls and visually evaluated. Plant response ratings, summarized in Table E, are based on a scale of 0 to 100 where 0 is no effect and 100 is complete control. A dash (-) response means no test result.

[6] = tested on: barnyardgrass; test: Test E preemergence herbicide test; format: in vivo, Echinochloa crus-galli; design: key: 0 = no effect, 100 = complete control
From the text: as §2

[7] = tested on: field bindweed; test: Test E preemergence herbicide test; format: in vivo, Convolvulus arvensis; design: key: 0 = no effect, 100 = complete control
From the text: as §2

[8] = tested on: foxtail, giant; test: Test E preemergence herbicide test; format: in vivo, Setaria faberii; design: key: 0 = no effect, 100 = complete control
From the text: as §2

| Compound | Plant response rating, Rice, Transplanted ([1]; 250 g ai/ha) | Plant response rating, Rice, Transplanted ([1]; 500 g ai/ha) | Plant response rating, Watergrass, Late ([2]; 250 g ai/ha) | Plant response rating, Watergrass, Late ([2]; 500 g ai/ha) | Plant response rating, Sprangletop, Brdd. ([3]; 250 g ai/ha) | Plant response rating, Sprangletop, Brdd. ([3]; 500 g ai/ha) | Plant response rating, Barnyardgrass ([4]; 250 g ai/ha) | Plant response rating, Barnyardgrass ([4]; 500 g ai/ha) | Plant response rating, Corn ([5]; 31 g ai/ha) | Plant response rating, Corn ([5]; 62 g ai/ha) | Plant response rating, Corn ([5]; 125 g ai/ha) | Plant response rating, Corn ([5]; 250 g ai/ha) | Plant response rating, Barnyardgrass ([6]; 31 g ai/ha) | Plant response rating, Barnyardgrass ([6]; 62 g ai/ha) | Plant response rating, Barnyardgrass ([6]; 125 g ai/ha) | Plant response rating, Barnyardgrass ([6]; 250 g ai/ha) | Plant response rating, Field Bindweed ([7]; 31 g ai/ha) | Plant response rating, Field Bindweed ([7]; 62 g ai/ha) | Plant response rating, Field Bindweed ([7]; 125 g ai/ha) | Plant response rating, Field Bindweed ([7]; 250 g ai/ha) | further results |
| --- | --- | --- | --- | --- | --- | --- | --- | --- | --- | --- | --- | --- | --- | --- | --- | --- | --- | --- | --- | --- | --- |
| O=C1NCC(c2cccc(C(F)(F)F)c2)C1C(=O)Nc1ccccc1F (racemic) [Compound 3] | 0 | 0 | 80 | 85 | 80 | 85 | 90 | 90 | – | – | – | – | – | – | – | – | – | – | – | – | – |
| O=C1NCC(c2ccc(F)cc2)C1C(=O)Nc1ccccc1F (racemic) [Compound 16] | – | – | – | – | – | – | – | – | 0 | 0 | 0 | 0 | 0 | 0 | 10 | 70 | 0 | 0 | 0 | 0 | Plant response rating, Corn ([5]; 16 g ai/ha): 0; Plant response rating, Barnyardgrass ([6]; 16 g ai/ha): 0; Plant response rating, Field Bindweed ([7]; 16 g ai/ha): 0; Plant response rating, Foxtail, Giant ([8]; 16 g ai/ha): 0; Plant response rating, Foxtail, Giant ([8]; 31 g ai/ha): 0; Plant response rating, Foxtail, Giant ([8]; 62 g ai/ha): 15; Plant response rating, Foxtail, Giant ([8]; 125 g ai/ha): 25; Plant response rating, Foxtail, Giant ([8]; 250 g ai/ha): 95 |
| O=C1NCC(c2cccc(C(F)(F)F)c2)C1C(=O)Nc1ccc(F)cc1F (racemic) [Compound 207] | 0 | 0 | 85 | 90 | 100 | 100 | 100 | 100 | – | – | – | – | – | – | – | – | – | – | – | – | Plant response rating, Rice, Transplanted ([1]; 125 g ai/ha): 0; Plant response rating, Watergrass, Late ([2]; 125 g ai/ha): 65; Plant response rating, Sprangletop, Brdd. ([3]; 125 g ai/ha): 100; Plant response rating, Barnyardgrass ([4]; 125 g ai/ha): 60 |
| O=C1NCC(c2ccc(C(F)(F)F)c(F)c2)C1C(=O)Nc1cccc(F)c1F (racemic) [Compound 247] | 0 | 0 | 65 | 70 | 95 | 98 | 65 | 70 | – | – | – | – | – | – | – | – | – | – | – | – | Plant response rating, Rice, Transplanted ([1]; 125 g ai/ha): 0; Plant response rating, Rice, Transplanted ([1]; 1000 g ai/ha): 10; Plant response rating, Rice, Transplanted ([1]; 2000 g ai/ha): 15; Plant response rating, Watergrass, Late ([2]; 125 g ai/ha): 65; Plant response rating, Watergrass, Late ([2]; 1000 g ai/ha): 85; Plant response rating, Watergrass, Late ([2]; 2000 g ai/ha): 90; Plant response rating, Sprangletop, Brdd. ([3]; 125 g ai/ha): 90; Plant response rating, Sprangletop, Brdd. ([3]; 1000 g ai/ha): 98; Plant response rating, Sprangletop, Brdd. ([3]; 2000 g ai/ha): 98; Plant response rating, Barnyardgrass ([4]; 125 g ai/ha): 60; Plant response rating, Barnyardgrass ([4]; 1000 g ai/ha): 70; Plant response rating, Barnyardgrass ([4]; 2000 g ai/ha): 75 |
| O=C1NCC(c2cccc(Br)c2)C1C(=O)Nc1ccccc1F (stereo not drawn) [Compound 66] | – | – | – | – | – | – | – | – | 0 | 0 | 0 | 0 | 0 | 20 | 50 | 50 | 0 | 0 | 0 | 0 | Plant response rating, Corn ([5]; 16 g ai/ha): 0; Plant response rating, Barnyardgrass ([6]; 16 g ai/ha): 0; Plant response rating, Field Bindweed ([7]; 16 g ai/ha): 0; Plant response rating, Foxtail, Giant ([8]; 16 g ai/ha): 0; Plant response rating, Foxtail, Giant ([8]; 31 g ai/ha): 0; Plant response rating, Foxtail, Giant ([8]; 62 g ai/ha): 0; Plant response rating, Foxtail, Giant ([8]; 125 g ai/ha): 98 |
| O=C1NCC(c2ccc(C(F)(F)F)cc2)C1C(=O)Nc1ccc(F)c(F)c1F (stereo not drawn) [Compound 232] | – | – | – | – | – | – | – | – | 0 | 0 | 0 | 0 | 60 | 70 | 98 | 95 | 0 | 0 | 40 | 40 | Plant response rating, Foxtail, Giant ([8]; 31 g ai/ha): 35; Plant response rating, Foxtail, Giant ([8]; 62 g ai/ha): 90; Plant response rating, Foxtail, Giant ([8]; 125 g ai/ha): 95; Plant response rating, Foxtail, Giant ([8]; 250 g ai/ha): 98 |
| CN1CC(c2ccc(F)cc2)C(C(=O)Nc2cccc(F)c2F)C1=O (stereo not drawn) [Compound 271] | 0 | 15 | 100 | 100 | 80 | 95 | 100 | 100 | – | – | – | – | – | – | – | – | – | – | – | – | Plant response rating, Rice, Transplanted ([1]; 64 g ai/ha): 0; Plant response rating, Rice, Transplanted ([1]; 125 g ai/ha): 0; Plant response rating, Watergrass, Late ([2]; 64 g ai/ha): 45; Plant response rating, Watergrass, Late ([2]; 125 g ai/ha): 75; Plant response rating, Sprangletop, Brdd. ([3]; 64 g ai/ha): 20; Plant response rating, Sprangletop, Brdd. ([3]; 125 g ai/ha): 30; Plant response rating, Barnyardgrass ([4]; 64 g ai/ha): 55; Plant response rating, Barnyardgrass ([4]; 125 g ai/ha): 75 |
